This passage reports EC50 results from patent US10196346B2, “Substituted acethydrazide derivative, preparation method and use thereof” (Institute of Pharmacology and Toxicology Academy of …, priority 2014, dated 2019).

The target of this assay is EGFP-HIF-1α fusion protein (Homo sapiens (Human), UniProt Q16665). The experiment in a line: Stabilization of HIF-1α in EGFP-HIF-1α-CHOhIR cell model (nuclear EGFP fluorescence imaging). The assay is classed as cell-based. The settings on record: CHOhIR cells stably expressing EGFP-HIF-1α; 3 h incubation; 0.03-30 μM; bipyridine 100 μM = 100% activation; read-out: Effects in stabilization of HIF-1α activity (EC50). As to the method:
CHOhIR cells (purchased from Thermo Fisher Scientific) which stably expressed EGFP-HIF-1α fusion protein were cultured under 37° C. and 5% CO2 in F12 culture solution containing 0.5 mg/ml G418 and 10% FBS, transplanted in an amount of 0.8×10^4 cells/100 μl/well on a 96-well culture plate that could be subjected to fluorescence detection, and cultured under 37° C. and 5% CO2 for 18-24 h. […] After the cells were incubated under 37° C. and 5% CO2 for 3 h, 12% formaldehyde in amount of 100 μl/well was added, fixation was carried out at room temperature for 30 min. Culture media was discarded, and the plate was washed with PBS twice, PBS containing 1 μM Hoechst was used, staining was performed at room temperature for 1 h. Detection was performed by IN Cell Analyzer 1000 live cell imaging system. Detection conditions were: 20× objective lens, excitation wavelength Ex=460 nm, emission wavelength […] to detect blue-fluorescence of cell nucleus passage; excitation wavelength Ex=475 nm, emission wavelength Em=535 nm, exposure 500 ms to detect green-fluorescence EGFP of cytoplasm passage, and pictures were taken continuously in 5 fields of view for each well. IN Cell Analyzer 1000 Multitarget Analysis Module of GE Company was used for analyzing aggregation of green-fluorescence of HIF-1α in cell nucleus, and BP100 μM treatment group was used as 100% activation of HIF-1α.
In the case of `CCN(CC)c1ccc(/C=N/NC(=O)CN(C)CCN(C)Cc2cccc3ccccc23)c(O)c1` [Example 5, (E)-N′-(4-N,N-diethylamino-2-hydroxybenzal)-2-{N-{2-[N-(naphthalen-1-yl-methylene)-N-methylamino]ethyl}N-methylamino}acethydrazide], the EC50 came out at 780 ± 140 nM.

Regarding `COc1cccc(CN(C)CCN(C)CC(=O)N/N=C/c2cc(Br)ccc2O)c1` [Example 25, (E)-N′-(3-bromo-6-hydroxybenzal)-2-{N-{2-[N-(3-methoxybenzyl)-N-methylamino]ethyl}N-methylamino}acethydrazide], the concentration giving a half-maximal response (EC50) amounted to 7190 ± 1270 nM.

On to `CCOc1cccc(/C=N/NC(=O)CN(C)CCN(C)Cc2ccc(C(C)(C)C)cc2)c1O` [Example 32, (E)-N′-(3-ethoxy-2-hydroxybenzal)-2-{N-{2-[N-(4-tert-butylbenzyl)-N-methylamino]ethyl}N-methylamino}acethydrazide], for which the EC50 was found to be 1860 ± 570 nM.

On to `CN(CCN(C)Cc1cccc(C(F)(F)F)c1)CC(=O)N/N=C/c1cccc(O)c1O` [Example 11, (E)-N′-(2,3-dihydroxybenzal)-2-{N-{2-[N-(3-trifluoromethylbenzyl)-N-methylamino]ethyl}N-methylamino}acethydrazide], for which the EC50 came out at 170 ± 40 nM.

Turning to `CC(C)c1ccc(CN(C)CCN(C)CC(=O)N/N=C/c2cc(Br)ccc2O)cc1` [Example 18, (E)-N′-(3-bromo-6-hydroxybenzal)-2-{N-{2-[N-(4-isopropylbenzyl)-N-methylamino]ethyl}N-methylamino}acethydrazide], the EC50 came to 2280 ± 670 nM.

For `CC(C)c1ccc(CN(C)CCN(C)CC(=O)N/N=C/c2c(O)ccc3ccccc23)cc1` [Example 14, (E)-N′-[(2-hydroxynaphthalen-1-yl)methylene]-2-{N-{2-[N-(4-isopropylbenzyl)-N-methylamino]ethyl}N-methylamino}acethydrazide], the EC50 is 1020 ± 340 nM.

Turning to `COc1cccc(CN(C)CCN(C)CC(=O)N/N=C/c2cc(C(C)(C)C)cc(C(C)(C)C)c2O)c1` [Example 22, (E)-N′-(3,5-di-tert-butyl-2-hydroxybenzal)-2-{N-{2-[N-(3-methoxybenzyl)-N-methylamino]ethyl}N-methylamino}acethydrazide], the EC50 is 2770 ± 310 nM.

With `CC(C)c1ccc(CN(C)CCN(C)CC(=O)N/N=C/c2cccc(O)c2O)cc1` [Example 17, (E)-N′-(2,3-dihydroxybenzal)-2-{N-{2-[N-(4-isopropylbenzyl)-N-methylamino]ethyl}N-methylamino}acethydrazide], the concentration for a half-maximal effect (EC50) was 560 ± 150 nM.

`CCOc1cccc(/C=N/NC(=O)CN(C)CCN(C)Cc2ccc(C#N)cc2)c1O` [Example 29, (E)-N′-(3-ethoxy-2-hydroxybenzal)-2-{N-{2-[N-(4-cyanobenzyl)-N-methylamino]ethyl}N-methylamino}acethydrazide]: the EC50 was 2770 ± 390 nM.

As to `CCN(CC)c1ccc(/C=N/NC(=O)CN(C)CCN(C)Cc2cccc(OC)c2)c(O)c1` [Example 23, (E)-N′-(4-N,N-diethylamino-2-hydroxybenzal)-2-{N-{2-[N-(3-methoxybenzyl)-N-methylamino]ethyl}N-methylamino}acethydrazide], the EC50 was found to be 760 ± 150 nM.

Regarding `COc1cccc(/C=N/NC(=O)CN(C)CCN(C)Cc2ccc(C#N)cc2)c1O` [Example 28, (E)-N′-(3-methoxy-2-hydroxybenzal)-2-{N-{2-[N-(4-cyanobenzyl)-N-methylamino]ethyl}N-methylamino}acethydrazide], the EC50 was determined as 8420 ± 3150 nM.

As for `COc1cccc(CN(C)CCN(C)CC(=O)N/N=C/c2cccc(O)c2O)c1` [Example 24, (E)-N′-(2,3-dihydroxybenzal)-2-{N-{2-[N-(3-methoxybenzyl)-N-methylamino]ethyl}N-methylamino}acethydrazide], the EC50 stood at 820 ± 90 nM.

As for `CCN(CC)c1ccc(/C=N/NC(=O)CN(C)CCCN(C)Cc2ccc(C(C)(C)C)cc2)c(O)c1` [Example 33, (E)-N′-(4-N,N-diethylamino-2-hydroxybenzal)-2-{N-{3-[N-(4-tert-butylbenzyl)-N-methylamino]propyl}N-methylamino}acethydrazide], the EC50 worked out at 130 ± 20 nM.

As to `CN(CCN(C)Cc1cccc2ccccc12)CC(=O)N/N=C/c1cc(C(C)(C)C)cc(C(C)(C)C)c1O` [Example 2, (E)-N′-(3,5-di-tert-butyl-2-hydroxybenzal)-2-{N-{2-[N-(naphthalen-1-yl-methylene)-N-methylamino]ethyl}N-methylamino}acethydrazide], the 50% effective concentration (EC50) was determined as 17800 ± 4810 nM.

Regarding `CC(C)c1ccc(CN(C)CCN(C)CC(=O)N/N=C/c2cc(C(C)(C)C)cc(C(C)(C)C)c2O)cc1` [Example 15, (E)-N′-(3,5-di-tert-butyl-2-hydroxybenzal)-2-{N-{2-[N-(4-isopropylbenzyl)-N-methylamino]ethyl}N-methylamino}acethydrazide], the EC50 came out at 11200 ± 2870 nM.

`CN(CCN(C)Cc1ccc(C#N)cc1)CC(=O)N/N=C/c1c(O)ccc2ccccc12` [Example 26, (E)-N′-[(2-hydroxynaphthalen-1-yl)methylene]-2-{N-{2-[N-(4-cyanobenzyl)-N-methylamino]ethyl}N-methylamino}acethydrazide]: the EC50 turned out to be 980 ± 100 nM.

Regarding `COc1cccc(/C=N/NC(=O)CN(C)CCN(C)Cc2ccc(C(C)(C)C)cc2)c1O` [Example 31, (E)-N′-(3-methoxy-2-hydroxybenzal)-2-{N-{2-[N-(4-tert-butylbenzyl)-N-methylamino]ethyl}N-methylamino}acethydrazide], the half-maximal effective concentration (EC50) was determined as 2760 ± 780 nM.

As to `CCN(CC)c1ccc(/C=N/NC(=O)CN(C)CCN(C)Cc2ccc(C#N)cc2)c(O)c1` [Example 30, (E)-N′-(4-N,N-diethylamino-2-hydroxybenzal)-2-{N-{2-[N-(4-cyanobenzyl)-N-methylamino]ethyl}N-methylamino}acethydrazide], the EC50 was 530 ± 20 nM.

As for `CN(CCN(C)Cc1cccc(C(F)(F)F)c1)CC(=O)N/N=C/c1cc(C(C)(C)C)cc(C(C)(C)C)c1O` [Example 8, (E)-N′-(3,5-di-tert-butyl-2-hydroxybenzal)-2-{N-{2-[N-(3-trifluoromethylbenzyl)-N-methylamino]ethyl}N-methylamino}acethydrazide], the EC50 turned out to be 5230 ± 1390 nM.

Turning to `CN(CCN(C)Cc1cccc2ccccc12)CC(=O)N/N=C/c1c(O)ccc2ccccc12` [Example 4, (E)-N′-[(2-hydroxynaphthalen-1-yl)methylene]-2-{N-{2-[N-(naphthalen-1-yl-methylene)-N-methylamino]ethyl}N-methylamino}acethydrazide], the EC50 was determined as 830 ± 180 nM.

`COc1cccc(/C=N/NC(=O)CN(C)CCN(C)Cc2cccc3ccccc23)c1O` [Example 1, (E)-N′-(3-methoxy-2-hydroxybenzal)-2-{N-{2-[N-(naphthalen-1-yl-methylene)-N-methylamino]ethyl}N-methylamino}acethydrazide]: the concentration giving a half-maximal response (EC50) turned out to be 2290 ± 270 nM.

As to `CCOc1cccc(/C=N/NC(=O)CN(C)CCN(C)Cc2ccc(C(C)C)cc2)c1O` [Example 13, (E)-N′-[(3-ethoxy-2-hydroxybenzal)methylene]-2-{N-{2-[N-(4-isopropylbenzyl)-N-methylamino]ethyl}N-methylamino}acethydrazide], the EC50 stood at 800 ± 190 nM.

`CCOc1cccc(/C=N/NC(=O)CN(C)CCN(C)Cc2cccc3ccccc23)c1O` [Example 3, (E)-N′-(3-ethoxy-2-hydroxybenzal)-2-{N-{2-[N-(naphthalen-1-yl-methylene)-N-methylamino]ethyl}N-methylamino}acethydrazide]: the EC50 worked out at 2110 ± 850 nM.

Regarding `CCN(CC)c1ccc(/C=N/NC(=O)CN(C)CCN(C)Cc2cccc(C(F)(F)F)c2)c(O)c1` [Example 10, (E)-N′-(4-N,N-diethylamino-2-hydroxybenzal)-2-{N-{2-[N-(3-trifluoromethylbenzyl)-N-methylamino]ethyl}N-methylamino}acethydrazide], the EC50 was 600 ± 180 nM.

On to `CN(CCN(C)Cc1ccc(C#N)cc1)CC(=O)N/N=C/c1cc(C(C)(C)C)cc(C(C)(C)C)c1O` [Example 27, (E)-N′-(3,5-di-tert-butyl-2-hydroxybenzal)-2-{N-{2-[N-(4-cyanobenzyl)-N-methylamino]ethyl}N-methylamino}acethydrazide], for which the half-maximal effective concentration (EC50) came out at 7750 ± 1330 nM.
